Patent US20210244738A1, “COMPOSITIONS AND METHODS FOR SUPPRESSING NONSENSE MUTATIONS” (The UAB Research Foundation, priority 2018, published 2021)

System: Idua-KO MEFs
Assay: GAG levels in Idua-KO MEFs
Assay type: cell-based, mouse
Settings: 48 hours (FIG. 7B)
Method: MEFs were grown to 50% confluency and then treated with screening agents for 48 hours.

Row | Compound | reduction in GAGs
1 | Nc1nc(N)c2nc(-c3ccccc3)c(N)nc2n1 [Triamterene, 2,4,7-triamino-6-phenylpteridine] | little to no reduction in GAGs

System: W134X NanoLuc RT/NMD reporter
Assay: W134X NanoLuc readthrough/NMD reporter screen in Fischer rat thyroid cells
Assay type: cell-based
Settings: NanoLuc activity; drug conc. 60 μM combined with G418 100 μg/ml
Method: Equal numbers of the W134X NanoLuc RT/NMD monoclonal reporter cells were seeded into 96-well plates and cultured without zeocin for 24 hours. The cells were then treated with screening compounds for 24-hours. Dimethylsulfoxide served as the vehicle in which compounds were administered at a final concentration of 60 μM or 30 μg/ml. After treatment, the cells were washed once with phosphate-buffered saline, followed by incubation with passive lysis buffer (PLB) (Promega, E1941) for 20 minutes at room temperature. NanLuc activity in cell lysates was assayed with the Nano-Glo Luciferase Assay System (Promega, N1120) using the GloMax® Discover System (Promega). NanoLuc activity was normalized to the lysate protein concentration, which was determined by the Bio-Rad Protein Assay Reagent (Bio-Rad, 500-006).
In order to identify new compounds with the ability to suppress PTCs by inducing readthrough, inhibiting NMD, or both, a NanoLuc reporter that harbors a point mutation at codon W134 was utilized, resulting in the introduction of a UGA termination codon (W134X) into the NanoLuc cDNA. This NanoLuc construct was fused in-frame to a human β-globin construct containing intronic regions, which allows the W134X PTC to elicit exon-junction-complex dependent NMD (FIG. 1A). This NanoLuc readthrough/NMD reporter was stably expressed in Fischer rat thyroid cells, which were used to screen a 10,000 low molecular weight compound library for compounds that increase NanoLuc activity in treated cells relative to a vehicle control.

Row | Compound | +G418 Fold-Increase (Rel. to G418)
2 | COc1cc2nc(N3CCN(C(=O)C4COc5ccccc5O4)CC3)nc(N)c2cc1OC (stereo not shown) [Doxazocin] | 10.3 fold
3 | COc1cc2c(cc1OC)CN(CCc1ccc(NC(=O)c3cccc4c(=O)c5cccc(OC)c5[nH]c34)cc1)CC2 [Elacridar] | 6.0 fold
4 | CCCn1c(=O)c2[nH]c(-c3cnn(Cc4cccc(C(F)(F)F)c4)c3)nc2n(CC)c1=O [GS-6201] | 13.6 fold
5 | Cc1ccc(NC(=O)c2ccc(CN3CCN(C)CC3)cc2)cc1Nc1nccc(-c2cccnc2)n1 [Imantinib] | 19.1 fold
6 | C=CCN1CC[C@]23c4c5ccc(O)c4O[C@H]2/C(=N/N=C2\CC[C@@]4(O)[C@H]6Cc7ccc(O)c8c7[C@@]4(CCN6CC=C)[C@H]2O8)CC[C@@]3(O)[C@H]1C5 [Naloxonazine] | 5.8 fold
7 | CN1CC(=O)N2[C@H](c3ccc4c(c3)OCO4)c3[nH]c4ccccc4c3C[C@@H]2C1=O [Tadalafil] | 6.3 fold
8 | COc1cc2c(N3CCN(C(=O)Nc4ccc(OC(C)C)cc4)CC3)ncnc2cc1OCCCN1CCCCC1 [Tandutinib] | 7.8 fold
9 | Nc1nc(N)c2nc(-c3ccccc3)c(N)nc2n1 [Triamterene, 2,4,7-triamino-6-phenylpteridine] | 15.7 fold
10 | Verteporfin | 7.1 fold

Same assay, conditions: NanoLuc activity; drug conc. 60 μM; 24 h

Row | Compound | Drug Alone Fold-Increase (Rel. to Basal)
11 | COc1cc2nc(N3CCN(C(=O)C4COc5ccccc5O4)CC3)nc(N)c2cc1OC (stereo not shown) [Doxazocin] | 4.1 fold
12 | COc1cc2c(cc1OC)CN(CCc1ccc(NC(=O)c3cccc4c(=O)c5cccc(OC)c5[nH]c34)cc1)CC2 [Elacridar] | 4.8 fold
13 | CCCn1c(=O)c2[nH]c(-c3cnn(Cc4cccc(C(F)(F)F)c4)c3)nc2n(CC)c1=O [GS-6201] | 10.3 fold
14 | Cc1ccc(NC(=O)c2ccc(CN3CCN(C)CC3)cc2)cc1Nc1nccc(-c2cccnc2)n1 [Imantinib] | 4.6 fold
15 | C=CCN1CC[C@]23c4c5ccc(O)c4O[C@H]2/C(=N/N=C2\CC[C@@]4(O)[C@H]6Cc7ccc(O)c8c7[C@@]4(CCN6CC=C)[C@H]2O8)CC[C@@]3(O)[C@H]1C5 [Naloxonazine] | 2.7 fold
16 | CN1CC(=O)N2[C@H](c3ccc4c(c3)OCO4)c3[nH]c4ccccc4c3C[C@@H]2C1=O [Tadalafil] | 2.3 fold
17 | COc1cc2c(N3CCN(C(=O)Nc4ccc(OC(C)C)cc4)CC3)ncnc2cc1OCCCN1CCCCC1 [Tandutinib] | 3.8 fold
18 | Nc1nc(N)c2nc(-c3ccccc3)c(N)nc2n1 [Triamterene, 2,4,7-triamino-6-phenylpteridine] | 13.4 fold
19 | Verteporfin | 4.3 fold

Same assay, conditions: NanoLuc activity; readthrough control at 100 μg/ml

Row | Compound | Drug Alone Fold-Increase (Rel. to Basal)
20 | CN[C@@H]1[C@@H](O)[C@@H](O[C@@H]2[C@@H](O)[C@H](O[C@H]3O[C@H]([C@@H](C)O)[C@@H](O)[C@H](O)[C@H]3N)[C@@H](N)C[C@H]2N)OC[C@]1(C)O [G418 alone] | 24 fold

System: Idua mRNA in wildtype MEFs
Assay: Steady state Idua mRNA by qPCR in wildtype MEFs
Assay type: cell-based, mouse
Settings: 48 hours, compared to the vehicle alone control
Method: Total RNA was isolated from MEFs using the Ambion RiboPure kit and DNase-treated using the Turbo DNA-Free kit. Polyadenylated RNA was reverse transcribed into cDNA in a 50 μl reaction containing […] of total RNA; 0.5 mg/ml oligo dT; 1.2 mM dNTPs; 40 U RNasin (Promega); […] of 5×AMV RT buffer and 40 U AMV reverse transcriptase (Promega), RT reactions were incubated at 42° C. for 1.5 hours, and then heat inactivated at 65° C. for 15 minutes. The cDNA was ethanol precipitated and subjected to qPCR in a 25 μl reaction containing 12.5 μl iQ SYBR Green Supermix (Bio-Rad); 0.2 mM of each forward and reverse primer; and […] of cDNA. […]
Melt curve analysis was initially performed with each primer set to verify that only one gene product was generated from the PCR reactions. […] The average quantification cycle (Cq) was determined for each mRNA, and mRNA quantification was performed using the Livak (DDCq) method (Livak K J, et al. (2001) Methods. 25(4):402-8), where Gapdh and Rpl13a served as normalization controls.

Row | Compound | change of Idua mRNA levels
21 | COc1cc2nc(N3CCN(C(=O)C4COc5ccccc5O4)CC3)nc(N)c2cc1OC (stereo not shown) [Doxazocin] | slightly increased Idua mRNA levels
22 | Nc1nc(N)c2nc(-c3ccccc3)c(N)nc2n1 [Triamterene, 2,4,7-triamino-6-phenylpteridine] | did not significantly change Idua mRNA levels

System: not given
Assay: not given
Settings: Hirawat et al. 2004, 2007; cited from earlier work

Row | Compound | toxicity / safety for clinical use
23 | O=C(O)c1cccc(-c2noc(-c3ccccc3F)n2)c1 [ataluren] | non-toxic and safe for clinical use

System: cystic fibrosis patients who carry a PTC
Assay: not given
Settings: Kerem et al. 2014; cited from earlier work

Row | Compound | lung function
24 | O=C(O)c1cccc(-c2noc(-c3ccccc3F)n2)c1 [ataluren] | did not significantly improve lung function

System: Idua-KO MEFs
Assay: α-L-iduronidase activity in Idua-KO MEFs
Assay type: cell-based, mouse
Settings: 48 hours (FIG. 7A)
Method: MEFs were seeded into 6-well culture dishes at a density of 1.5×10^5 cells per well. MEFs were grown to 50% confluency and then treated with screening agents for 48 hours. MEFs were subsequently washed with PBS and lysed in Mammalian Protein Extraction Reagent (Pierce) containing a protease inhibitor cocktail (Roche). The total protein concentration was determined using the Bio-Rad Protein Assay, Approximately 75 micrograms of total lysate protein was incubated in a 70-microliter reaction containing 0.12 mM 4-methyl-umbelliferyl-α-L-iduronide (Gold Biotech) and 0.42 mg/ml of D-saccharic acid 1,4-lactone monohydrate (a β-glucuronidase inhibitor) (Sigma 50375) in 130 mM sodium formate buffer, pH 3.5. The reaction was incubated for 72 hours at 37° C. and then quenched with 300 μl of glycine buffer, pH 10.8. 200 μl of each sample was transferred to a 96-well plate (Corning 3631) and fluorescence was measured at an excitation=365 nm and an emission=450 nm using the GloMax® Discover System (Promega). Free acid 4-methylumbelliferone (FMU) (Sigma M1381) in glycine buffer was used to generate a standard curve.

Row | α-L-iduronidase activity | Compound
25 | slight increases in α-L-iduronidase | Nc1nc(N)c2nc(-c3ccccc3)c(N)nc2n1 [Triamterene, 2,4,7-triamino-6-phenylpteridine]
